From patent publication US7038106B1, “Detection of neural activity” (The University Court of the University of Glasgow, priority 1998, dated 2006)
Entries after “also recorded” stand apart in the source; their conditions may differ. Where two headings read alike, the source gives them in different places.

Legend:
[1] = tested on: mushroom bodies (Kenyon cells) of Drosophila adult brain; assay: Aequorin luminometry of endogenous intracellular calcium oscillation in intact Drosophila brain (GAL4-aeq lines); assay type: cell-based; conditions: for EC50: Drosophila melanogaster, read-out: EC50 for reduction of oscillation amplitude; for Effect on oscillation amplitude and period/frequency: concentration not given
[2] = tested on: Honeybee KCs delayed rectifier-type current; conditions: cited from earlier work
[3] = tested on: Honeybee KCs calcium current; conditions: cited from earlier work

Compound: Nc1ccncc1 [4-aminopyridine]
- Sensitivity of oscillation in Sh5 background relative to Sh+ control (less sensitive) [1]: 10 fold
- EC50 ([1]; dose-response curves from amplitudes measured before and after treatment, […]): ~30 µM
- Effect on oscillation frequency / period ([1]; concentration not stated or dose-dependent): dose-dependent reduction of oscillation period
- Effect on oscillation amplitude ([1]; concentration not stated or dose-dependent, […]): reduce oscillation amplitude in a dose-dependent manner

Compound: [Co] [Cobalt]
- Effect on oscillation ([1]; 1–10 mM range): gradual dampening effect on oscillation

Compound: O=C(O)CN(CCOCCOCCN(CC(=O)O)CC(=O)O)CC(=O)O [EGTA]
- Effect on oscillation ([1]; 1 mM, removal of external calcium): Oscillation ceases

Compound: NCCCC(=O)O [GABA]
- Effect on oscillation amplitude and period ([1]; 1 mM): increases both amplitude and period
- Effect on oscillation amplitude and period/frequency [1]: increases both amplitude and period

Compound: CN1CCCC1c1cccnc1 (stereo not shown) [Nicotine]
- Effect on oscillation [1]: complete abolition of oscillation

Compound: C=C[C@H]1C[N@@]2CC[C@H]1C[C@@H]2[C@@H](O)c1ccnc2ccc(OC)cc12 [Quinidine]
- Effect on delayed rectifier-type current ([2]; 100 μM): blocked

Compound: CC(=O)[O-].CC[N+](CC)(CC)CC [TEA, tetraethylammonium acetate]
- Effect on oscillation [1]: eliminate oscillations
- EC50 [1]: ~70 µM
- Sensitivity of delayed rectifier-type current [2]: only weakly sensitive

Compound: Nc1c2c(nc3ccccc13)CCCC2 [Tacrine]
- EC50 ([1]; dose-response curves from amplitudes measured before and after treatment, 117Y-aeq adult brains): ~1 µM
- Effect on oscillation amplitude and period/frequency [1]: reduce both oscillation amplitude and frequency

Compound: NC1=N[C@H](O)[C@H]2[C@H]3O[C@]4(O)O[C@@H]([C@@H](O)[C@@]2(N1)[C@@H]4O)[C@]3(O)CO [Tetrodotoxin]
- Effect on oscillation [1]: cessation of oscillation within a few cycles of application; also recorded: oscillation resumes in the form of a series of spaced bursts of very high relative amplitude

Compound: COc1ccc(CCN(C)CCCC(C#N)(c2ccc(OC)c(OC)c2)C(C)C)cc1OC (stereo not shown) [Verapamil]
- Effect on calcium current [3]: affected

Compound: CCCC(=O)Nc1ncnc2c1ncn2[C@@H]1O[C@@H]2COP(=O)(O)O[C@H]2[C@H]1OC(=O)CCC [dibutyryl cAMP]
- Effect on oscillation ([1]; 1 mM, cAMP pathway): ineffective

Compound: Picrotoxin [Pierotoxin]
- Effect on oscillation amplitude and period/frequency [1]: opposite effects
